Test [1] has as its system Beet Armyworm (Spodoptera exigua, LAPHEG). Description: Bioassays on Beet Armyworm (BAW), 128-well diet tray assay. It is filed as in vivo. The following applies: Spodoptera exigua. The essentials: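 Diet-overlay assay: 50 μg/cm^2 compound applied in 90:10 acetone-water to artificial diet, allowed to dry, then infested with 1–5 L2 larvae/well; 8 wells/compound; covered, vented; 25° C., 14:10 L:D, 5–7 d; % mortality per well, averaged.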

For test [2], the system named is Cabbage Looper (Trichoplusia ni, TRIPNI). Description: Bioassays on Cabbage Looper (CL), 128-well diet tray assay. It is filed as in vivo. The note with it: Trichoplusia ni. The essentials: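 Test molecule was dissolved in 90:10 acetone-water, applied to artificial diet at 50 μg/cm^2 and allowed to dry. Second-instar larvae were then added, one to five per well, and trays held at 25° C for five to seven days before mortality was scored and averaged.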

Where [3] appears, read: Table ABC: Biological Results, species BAW, read-out: BAW.
Where [4] appears, read: Table ABC: Biological Results, species CL, read-out: CL.
Setting [5] is: Beet Armyworm, rating class, read-out: BAW.
[6] abbreviates: Cabbage Looper, rating class, read-out: CL.
The mark [7] stands for this setting: Beet Armyworm, Table ABC / ABC-DP rating, read-out: BAW rating.
Where [8] appears, read: Cabbage Looper, Table ABC / ABC-DP rating, read-out: CL rating.

Where two headings read alike, the source gives them in different places.

`O=C(Nc1ccc(F)c(NC(=O)C(F)F)c1F)c1cc(NC(=O)[C@H]2[C@H](c3ccc(Cl)c(Cl)c3)C2(Cl)Cl)cc(F)c1Cl` [F1287, 2-Chloro-5-((1R,3R)-2,2-dichloro-3-(3,4-dichlorophenyl)cyclopropane-1-carboxamido)-N-(3-(2,2-difluoroacetamido)-2,4-difluorophenyl)-3-fluorobenzamide]: the pest or weed control at 50 µg/cm2 in test [1] (setting [3]) and in test [2] (setting [4]) was 50 to 100% each time.
As for `O=C(Nc1ccc(F)c(NC(=O)C2(C(F)(F)F)CC2)c1F)c1cc(NC(=O)[C@H]2[C@H](c3ccc(Cl)c(Cl)c3)C2(Cl)Cl)ccc1Cl` [F1662, 2-Chloro-5-((1R,3R)-2,2-dichloro-3-(3,4-dichlorophenyl)cyclopropane-1-carboxamido)-N-(2,4-difluoro-3-(1-(trifluoromethyl)cyclopropane-1-carboxamido)phenyl)benzamide], the pest or weed control at 50 µg/cm2 in test [1] (setting [5]) and in test [2] (setting [6]) was 50 to 100% each time.
In the case of `O=C(NCCCCl)c1c(Cl)ccc(NC(=O)[C@H]2[C@H](c3ccc(F)c(Cl)c3)C2(Cl)Cl)c1F` [F2074, 6-Chloro-N-(3-chloropropyl)-3-((1R,3R)-2,2-dichloro-3-(3-chloro-4-fluorophenyl)cyclopropane-1-carboxamido)-2-fluorobenzamide], the pest or weed control at 50 µg/cm2 in test [1] (setting [7]) and in test [2] (setting [8]) was 50 to 100% throughout.
Turning to `O=C(Nc1ccc(F)c(NC(=O)C(F)F)c1F)c1cc(NC(=O)[C@H]2[C@H](c3cc(Cl)cc(Cl)c3)C2(Cl)Cl)cc(F)c1Cl` [F1333, 2-Chloro-5-((1R,3R)-2,2-dichloro-3-(3,5-dichlorophenyl)cyclopropane-1-carboxamido)-N-(3-(2,2-difluoroacetamido)-2,4-difluorophenyl)-3-fluorobenzamide], the pest or weed control at 50 µg/cm2 in test [1] (setting [3]) and in test [2] (setting [4]) was 50 to 100% in each case.
For `O=C(Nc1cc(NC(=O)C(F)(F)C(F)F)c(F)cc1F)c1cc(NC(=O)[C@H]2[C@H](c3ccc(Cl)c(Cl)c3)C2(Cl)Cl)ccc1Cl` [F1565, 2-Chloro-5-((1R,3R)-2,2-dichloro-3-(3,4-dichlorophenyl)cyclopropane-1-carboxamido)-N-(2,4-difluoro-5-(2,2,3,3-tetrafluoropropanamido)phenyl)benzamide], the pest or weed control at 50 µg/cm2 in test [1] (setting [5]) and in test [2] (setting [6]) was 50 to 100% in each case.
For the compound `Cc1cc([C@H]2[C@H](C(=O)Nc3ccc(Cl)c(C(=O)Nc4ccc(F)c(N)c4F)c3)C2(Cl)Cl)cc(C(F)(F)F)c1F` (relative stereo) [F1068, trans-N-(3-Amino-2,4-difluorophenyl)-2-chloro-5-(2,2-dichloro-3-(4-fluoro-3-methyl-5-(trifluoromethyl)phenyl)cyclopropane-1-carboxamido)benzamide], the pest or weed control at 50 µg/cm2 in test [1] (setting [3]) and in test [2] (setting [4]) was 50 to 100% throughout.
Regarding `CC(=O)Nc1ccc(F)c(NC(=O)c2cc(NC(=O)[C@H]3[C@H](c4cc(Cl)c(Cl)c(Cl)c4)C3(Cl)Cl)cc(C)c2Cl)c1F` [F1524, N-(3-Acetamido-2,6-difluorophenyl)-2-chloro-5-((1R,3R)-2,2-dichloro-3-(3,4,5-trichlorophenyl)cyclopropane-1-carboxamido)-3-methylbenzamide], the pest or weed control at 50 µg/cm2 in test [1] (setting [5]) and in test [2] (setting [6]) was 50 to 100% in each case.
On to `O=C(Nc1c(F)ccc(NC(=O)C(F)(F)F)c1F)c1cc(NC(=O)[C@H]2[C@H](c3ccc(Cl)c(Cl)c3)C2(Cl)Cl)cc(F)c1F` [F1578, 5-((1R,3R)-2,2-Dichloro-3-(3,4-dichlorophenyl)cyclopropane-1-carboxamido)-N-(2,6-difluoro-3-(2,2,2-trifluoroacetamido)phenyl)-2,3-difluorobenzamide], for which the pest or weed control at 50 µg/cm2 in test [1] (setting [5]) and in test [2] (setting [6]) was 50 to 100% each time.
On to `O=C(Nc1ccc(Cl)c(NC(=O)C(F)(F)F)c1)c1cc(NC(=O)[C@H]2[C@H](c3ccc(F)c(Cl)c3)C2(Cl)Cl)ccc1Cl` (relative stereo) [F1366, trans-2-Chloro-N-(4-chloro-3-(2,2,2-trifluoroacetamido)phenyl)-5-(2,2-dichloro-3-(3-chloro-4-fluorophenyl)cyclopropane-1-carboxamido)benzamide], for which the pest or weed control at 50 µg/cm2 in test [1] (setting [3]) and in test [2] (setting [4]) was 50 to 100% throughout.
Take `CC(OC(F)F)C(=O)Nc1c(F)ccc(NC(=O)c2cc(NC(=O)[C@H]3[C@H](c4ccc(F)c(C(F)(F)F)c4)C3(Cl)Cl)ccc2Cl)c1F` (stereo partly drawn) [F1828, 2-Chloro-5-((1R,3R)-2,2-dichloro-3-(4-fluoro-3-(trifluoromethyl)phenyl)cyclopropane-1-carboxamido)-N-(3-(2-(difluoromethoxy)propanamido)-2,4-difluorophenyl)benzamide]: the pest or weed control at 50 µg/cm2 in test [1] (setting [7]) and in test [2] (setting [8]) was 50 to 100% throughout.
Regarding `O=C(Nc1cc(NC(=O)C(F)(F)F)c(F)cc1F)c1cc(NC(=O)[C@H]2[C@H](c3ccc(F)c(C(F)(F)F)c3)C2(Cl)Cl)cc(F)c1Cl` [F1407, 2-Chloro-5-((1R,3R)-2,2-dichloro-3-(4-fluoro-3-(trifluoromethyl)phenyl)cyclopropane-1-carboxamido)-N-(2,4-difluoro-5-(2,2,2-trifluoroacetamido)phenyl)-3-fluorobenzamide], the pest or weed control at 50 µg/cm2 in test [1] (setting [5]) and in test [2] (setting [6]) was 50 to 100% in each case.
For `O=C(Nc1ccc(F)c(NC(=O)C(F)F)c1F)c1cc(NC(=O)[C@H]2[C@H](c3ccc(F)c(I)c3)C2(Cl)Cl)ccc1Cl` (relative stereo) [F1624, trans-2-Chloro-5-(2,2-dichloro-3-(4-fluoro-3-iodophenyl)cyclopropane-1-carboxamido)-N-(3-(2,2-difluoroacetamido)-2,4-difluorophenyl)benzamide], the pest or weed control at 50 µg/cm2 in test [1] (setting [5]) and in test [2] (setting [6]) was 50 to 100% throughout.
Take `O=C(Nc1cc(NC(=O)C(F)F)c(F)cc1F)c1cc(NC(=O)[C@H]2[C@H](c3ccc(F)c(C(F)(F)F)c3)C2(Cl)Cl)cc(F)c1Cl` [F1406, 2-Chloro-5-((1R,3R)-2,2-dichloro-3-(4-fluoro-3-(trifluoromethyl)phenyl)cyclopropane-1-carboxamido)-N-(5-(2,2-difluoroacetamido)-2,4-difluorophenyl)-3-fluorobenzamide]: the pest or weed control at 50 µg/cm2 in test [1] (setting [5]) and in test [2] (setting [6]) was 50 to 100% throughout.
For `O=C(Nc1ccc(F)c(NC(=O)C(F)F)c1F)c1cc(NC(=O)[C@H]2[C@H](c3cccc(S(F)(F)(F)(F)F)c3)C2(Cl)Cl)ccc1Cl` (relative stereo) [F1293, trans-2-Chloro-5-(2,2-dichloro-3-(3-(pentafluoro-λ^6-sulfanyl)phenyl)cyclopropane-1-carboxamido)-N-(3-(2,2-difluoroacetamido)-2,4-difluorophenyl)benzamide], the pest or weed control at 50 µg/cm2 in test [1] (setting [3]) and in test [2] (setting [4]) was 50 to 100% each time.
For the compound `Cc1cc(NC(=O)CCCN)ccc1NC(=O)c1cc(NC(=O)[C@H]2[C@H](c3ccc(Cl)c(Cl)c3)C2(Cl)Cl)ccc1Cl` (relative stereo) [F1202, trans-N-(4-(4-Aminobutanamido)-2-methylphenyl)-2-chloro-5-(2,2-dichloro-3-(3,4-dichlorophenyl)cyclopropane-1-carboxamido)benzamide], the pest or weed control at 50 µg/cm2 in test [1] (setting [3]) and in test [2] (setting [4]) was 50 to 100% in each case.
Consider `O=C1CC(C(=O)Nc2c(F)ccc(NC(=O)c3cc(NC(=O)[C@H]4[C@H](c5cc(Cl)c(Cl)c(Cl)c5)C4(Cl)Cl)ccc3Cl)c2F)C1` [F1649, 2-Chloro-5-((1R,3R)-2,2-dichloro-3-(3,4,5-trichlorophenyl)cyclopropane-1-carboxamido)-N-(2,4-difluoro-3-(3-oxocyclobutane-1-carboxamido)phenyl)benzamide], for which the pest or weed control at 50 µg/cm2 in test [1] (setting [5]) and in test [2] (setting [6]) was 50 to 100% each time.
For the compound `CC(=O)Nc1ccc(F)c(NC(=O)c2cc(NC(=O)[C@H]3[C@H](c4ccc(Cl)c(Cl)c4)C3(Cl)Cl)cc(F)c2F)c1F` [F1575, N-(3-Acetamido-2,6-difluorophenyl)-5-((1R,3R)-2,2-dichloro-3-(3,4-dichlorophenyl)cyclopropane-1-carboxamido)-2,3-difluorobenzamide], the pest or weed control at 50 µg/cm2 in test [1] (setting [5]) and in test [2] (setting [6]) was 50 to 100% in each case.
Regarding `COc1c(Cl)cc(NC(=O)[C@H]2[C@H](c3ccc(F)c(Cl)c3)C2(Cl)Cl)cc1C(=O)Nc1ccc(F)cc1F` (relative stereo) [F1236, trans-3-Chloro-5-(2,2-dichloro-3-(3-chloro-4-fluorophenyl)cyclopropane-1-carboxamido)-N-(2,4-difluorophenyl)-2-methoxybenzamide], the pest or weed control at 50 µg/cm2 in test [1] (setting [3]) and in test [2] (setting [4]) was 50 to 100% in each case.
As for `CC(=O)Nc1c(F)ccc(NC(=O)c2cc(NC(=O)[C@H]3[C@H](c4cc(Cl)cc(Cl)c4)C3(Cl)Cl)cc(F)c2Cl)c1F` [F1502, N-(3-Acetamido-2,4-difluorophenyl)-2-chloro-5-((1R,3R)-2,2-dichloro-3-(3,5-dichlorophenyl)cyclopropane-1-carboxamido)-3-fluorobenzamide], the pest or weed control at 50 µg/cm2 in test [1] (setting [5]) and in test [2] (setting [6]) was 50 to 100% in each case.
Consider `O=C(Nc1cc(NC(=O)C(F)F)c(F)cc1F)c1cc(NC(=O)[C@H]2[C@H](c3cc(Cl)cc(Cl)c3)C2(Cl)Cl)cc(F)c1Cl` [F1408, 2-Chloro-5-((1R,3R)-2,2-dichloro-3-(3,5-dichlorophenyl)cyclopropane-1-carboxamido)-N-(5-(2,2-difluoroacetamido)-2,4-difluorophenyl)-3-fluorobenzamide], for which the pest or weed control at 50 µg/cm2 in test [1] (setting [5]) and in test [2] (setting [6]) was 50 to 100% in each case.

The values above are taken from US20250228239A1, “MOLECULES HAVING PESTICIDAL UTILITY, AND INTERMEDIATES, COMPOSITIONS, AND PROCESSES, RELATED THERETO” (priority 2024, published 2025).
